This note sets out measurements from ChEMBL document CHEMBL1909046, “DrugMatrix in vitro pharmacology data”.

The nature of assay [1]: DRUGMATRIX: Calcium Channel Type L, Phenylalkylamine radioligand binding (ligand: [3H] (-)-Desmethoxyverapamil (D-888)). The following applies: Not Active = under 50% inhibition at 10 µM. The assay is classed as cell membranes, Rattus norvegicus, Wistar, Brain, Membrane.
A further assay deals with D(3) dopamine receptor (Homo sapiens, UniProt P35462). Description: DRUGMATRIX: Dopamine D3 radioligand binding (ligand: [3H] Spiperone). It is filed as cell membranes, CHO, Membrane. The following applies: for Ki: read-out: Ki.
Assay [2] addresses T1, Muscarinic acetylcholine receptor M2 (Homo sapiens, UniProt P08172).
T1 sequence (P08172 whole entry): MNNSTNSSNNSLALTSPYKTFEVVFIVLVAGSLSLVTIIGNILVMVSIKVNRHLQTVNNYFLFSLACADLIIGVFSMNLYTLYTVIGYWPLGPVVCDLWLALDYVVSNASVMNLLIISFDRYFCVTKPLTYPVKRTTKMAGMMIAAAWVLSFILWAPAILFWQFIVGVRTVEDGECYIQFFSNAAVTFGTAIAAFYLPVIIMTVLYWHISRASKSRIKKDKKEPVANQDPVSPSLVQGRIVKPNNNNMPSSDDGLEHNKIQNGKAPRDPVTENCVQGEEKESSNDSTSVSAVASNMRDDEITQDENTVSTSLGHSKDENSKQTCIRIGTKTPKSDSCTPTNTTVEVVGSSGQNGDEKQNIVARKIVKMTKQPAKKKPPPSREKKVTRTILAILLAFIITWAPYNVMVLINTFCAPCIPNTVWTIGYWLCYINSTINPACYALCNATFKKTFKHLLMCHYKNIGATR
It is filed as cell membranes, CHO-K1, Membrane.

For the next assay, the target named is T2, Caspase-1 (Homo sapiens, UniProt P29466).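 Also: Caspase-1 enzyme inhibition assay with a peptide substrate; in other assays of this panel Not Active means under 50% inhibition at 10 µM.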
T2 sequence (P29466 whole entry): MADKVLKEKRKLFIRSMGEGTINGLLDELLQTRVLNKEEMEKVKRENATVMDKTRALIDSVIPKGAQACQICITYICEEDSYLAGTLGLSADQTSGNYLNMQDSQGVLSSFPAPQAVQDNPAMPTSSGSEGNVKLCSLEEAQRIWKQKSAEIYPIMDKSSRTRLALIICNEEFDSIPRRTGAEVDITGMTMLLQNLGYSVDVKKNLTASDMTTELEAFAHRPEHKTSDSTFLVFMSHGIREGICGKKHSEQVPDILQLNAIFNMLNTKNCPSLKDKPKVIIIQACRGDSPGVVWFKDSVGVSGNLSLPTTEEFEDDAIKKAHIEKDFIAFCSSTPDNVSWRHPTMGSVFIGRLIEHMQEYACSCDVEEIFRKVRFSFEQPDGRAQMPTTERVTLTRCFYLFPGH
Also on record: species or system Escherichia coli.

Assay [3] deals with T3, 5-hydroxytryptamine receptor 1A (Rattus norvegicus, UniProt P19327).
T3 sequence (P19327 whole entry): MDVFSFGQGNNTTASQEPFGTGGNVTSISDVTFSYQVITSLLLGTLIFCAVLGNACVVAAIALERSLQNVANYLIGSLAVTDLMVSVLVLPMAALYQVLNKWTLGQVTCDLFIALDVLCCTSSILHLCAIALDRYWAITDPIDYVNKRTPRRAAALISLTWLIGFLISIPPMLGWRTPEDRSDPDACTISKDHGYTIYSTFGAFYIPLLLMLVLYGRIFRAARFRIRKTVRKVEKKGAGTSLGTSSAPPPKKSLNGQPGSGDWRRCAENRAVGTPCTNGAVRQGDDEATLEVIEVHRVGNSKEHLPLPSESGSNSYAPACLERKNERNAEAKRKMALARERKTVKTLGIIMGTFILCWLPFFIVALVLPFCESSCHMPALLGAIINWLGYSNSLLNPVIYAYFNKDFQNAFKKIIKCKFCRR
It is filed as cell membranes, CHO-K1, Membrane. The following applies: for Ki: read-out: Ki.

Sequence of D(3) dopamine receptor (P35462 whole entry): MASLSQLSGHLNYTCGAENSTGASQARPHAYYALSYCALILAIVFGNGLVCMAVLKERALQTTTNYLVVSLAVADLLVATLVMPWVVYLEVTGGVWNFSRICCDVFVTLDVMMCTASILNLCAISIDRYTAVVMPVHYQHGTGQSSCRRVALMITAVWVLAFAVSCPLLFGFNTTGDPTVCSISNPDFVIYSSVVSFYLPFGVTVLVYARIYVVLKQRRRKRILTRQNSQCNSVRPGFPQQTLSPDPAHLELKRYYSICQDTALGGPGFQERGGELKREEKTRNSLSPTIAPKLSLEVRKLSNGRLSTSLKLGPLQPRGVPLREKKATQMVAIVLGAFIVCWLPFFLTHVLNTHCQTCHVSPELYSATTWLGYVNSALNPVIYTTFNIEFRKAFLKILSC

As a reminder, the IC50 is the point on the concentration scale where inhibition reaches its midpoint. Broadly, the Ki is a dissociation constant, usually derived from enzyme kinetics or from competition with a known ligand. As for `Nn1nnc2ccccc21`, the IC50 result (in assay [1]; on D(3) dopamine receptor (cho); in assay [2] (cho-k1); on Caspase-1; in assay [3] (cho-k1)) was “Not Active” in each case. The Ki result in assay [1] is “Not Active”.

As to `CC[C@]1(O)CC[C@H]2[C@@H]3CCC4=CCCC[C@@H]4[C@H]3CC[C@@]21C`, the IC50 entry in assay [1] was “Not Active”; on D(3) dopamine receptor (cho) it was “Not Active”; in assay [2] (read-out: IC50) it was 292 nM; against Caspase-1, “Not Active”; in assay [3] (cho-k1) it was “Not Active”. For the same molecule, the figures for the Ki entry in assay [1] and in assay [2] (read-out: Ki) were “Not Active” and 104 nM, respectively.

For `N[C@@H](Cc1ccc(F)cc1)C(=O)O`, the IC50 entry (in assay [1]; on D(3) dopamine receptor (cho); in assay [2] (cho-k1); on Caspase-1; in assay [3] (cho-k1)) was “Not Active” each time. Besides, in assay [1], the Ki entry is reported as “Not Active”.

As to `CCOC(=O)[C@H](CCc1ccccc1)N[C@@H](C)C(=O)N1Cc2ccccc2C[C@H]1C(=O)O`, the IC50 result (in assay [1]; at D(3) dopamine receptor (cho); in assay [2] (cho-k1); at Caspase-1; in assay [3] (cho-k1)) was “Not Active” in each case. Moreover, the Ki entry in assay [1] was “Not Active”.

As to `O=C(c1ccccc1Cl)N1CCC(Cc2ccccc2)CC1`, the IC50 entry (in assay [1]; at D(3) dopamine receptor (cho); in assay [2] (cho-k1); at Caspase-1; in assay [3] (cho-k1)) was “Not Active” in each case. Moreover, in assay [1], the Ki result is “Not Active”.

`CCOC(=O)[C@H](CCc1ccccc1)N[C@@H](C)C(=O)N1CCC[C@H]1C(=O)O`: the IC50 entry (in assay [1]; at D(3) dopamine receptor (cho); in assay [2] (cho-k1); against Caspase-1; in assay [3] (cho-k1)) was “Not Active” each time. Moreover, the Ki entry in assay [1] is reported as “Not Active”.

As to `Clc1cc2c(cc1Cl)Oc1cc(Cl)c(Cl)cc1O2` [2,3,7,8-TETRACHLORODIBENZO-P-DIOXIN], the IC50 entry (in assay [1]; at D(3) dopamine receptor (cho); in assay [2] (cho-k1); against Caspase-1; in assay [3] (cho-k1)) was “Not Active” in each case. Besides, the Ki entry in assay [1] is listed as “Not Active”.

As to `C=C1/C(=C\C=C2/CCC[C@]3(C)[C@@H]([C@H](C)CCCC(C)C)CC[C@@H]23)C[C@@H](O)C[C@@H]1O` [ALFACALCIDOL], the IC50 result (in assay [1]; on D(3) dopamine receptor (cho); in assay [2] (cho-k1); against Caspase-1; in assay [3] (cho-k1)) was “Not Active” each time. Also, the Ki result in assay [1] is given as “Not Active”.

On to `CCCCCC[C@H]1C(=O)O[C@H](C)[C@H](NC(=O)c2cccc(NC=O)c2O)C(=O)O[C@@H](C)[C@@H]1OC(=O)CC(C)C` [ANTIMYCIN A], for which the IC50 entry (in assay [1]; at D(3) dopamine receptor (cho); in assay [2] (cho-k1); against Caspase-1; in assay [3] (cho-k1)) was “Not Active” in each case. Moreover, the Ki result in assay [1] is recorded as “Not Active”.

Regarding `C[C@@H]1CC[C@H]2[C@@H](C)C(=O)O[C@@H]3O[C@@]4(C)CC[C@@H]1[C@]32OO4` [ARTEMISININ], the IC50 entry (in assay [1]; on D(3) dopamine receptor (cho); in assay [2] (cho-k1); against Caspase-1; in assay [3] (cho-k1)) was “Not Active” each time. Also, the Ki result in assay [1] is “Not Active”.

As to `CO[C@H]1[C@@H](O)[C@H](N)[C@@H](O[C@H]2O[C@H]([C@H](C)N)CC[C@H]2N)[C@H](O)[C@@H]1N(C)C(=O)CN` [ASTROMICIN], the IC50 result (in assay [1]; on D(3) dopamine receptor (cho); in assay [2] (cho-k1); against Caspase-1; in assay [3] (cho-k1)) was “Not Active” in each case. Besides, the Ki result in assay [1] is recorded as “Not Active”.

Take `[N-]=[N+]=CC(=O)OC[C@H](N)C(=O)O` [AZASERINE]: the IC50 result (in assay [1]; at D(3) dopamine receptor (cho); in assay [2] (cho-k1); against Caspase-1; in assay [3] (cho-k1)) was “Not Active” in each case. Moreover, in assay [1], the Ki result is recorded as “Not Active”.

Take `CC[C@H]1OC(=O)[C@H](C)[C@@H](O[C@H]2C[C@@](C)(OC)[C@@H](O)[C@H](C)O2)[C@H](C)[C@@H](O[C@@H]2O[C@H](C)C[C@H](N(C)C)[C@H]2O)[C@](C)(O)C[C@@H](C)CN(C)[C@H](C)[C@@H](O)[C@]1(C)O` [AZITHROMYCIN]: the IC50 result (in assay [1]; at D(3) dopamine receptor (cho); in assay [2] (cho-k1); on Caspase-1; in assay [3] (cho-k1)) was “Not Active” in each case. In addition, in assay [1], the Ki entry is reported as “Not Active”.

In the case of `CC(C)(C)c1ccc(S(=O)(=O)/C=C/C#N)cc1` [BAY-11-7085], the IC50 entry is “Not Active” in assay [1]; 3460 nM at D(3) dopamine receptor (read-out: IC50); “Not Active” in assay [2] (cho-k1); “Not Active” at Caspase-1; “Not Active” in assay [3] (cho-k1). Besides, the inhibitory constant (Ki) entry in assay [1] is “Not Active”; at D(3) dopamine receptor, 1170 nM.

For the molecule `CCc1oc2ccccc2c1C(=O)c1cc(Br)c(O)c(Br)c1` [BENZBROMARONE], the IC50 entry (in assay [1]; at D(3) dopamine receptor (cho); in assay [2] (cho-k1); against Caspase-1; in assay [3] (cho-k1)) was “Not Active” throughout. Besides, in assay [1], the Ki result is recorded as “Not Active”.

For `O=c1cc(-c2ccccc2)oc2ccc3ccccc3c12` [BETA-NAPHTHOFLAVONE], the IC50 result (in assay [1]; at D(3) dopamine receptor (cho); in assay [2] (cho-k1); at Caspase-1; in assay [3] (cho-k1)) was “Not Active” throughout. In addition, the Ki entry in assay [1] is listed as “Not Active”.

As to `CC(C)C[C@H]1C(=O)N2CCC[C@H]2[C@]2(O)O[C@](NC(=O)[C@@H]3C=C4c5cccc6[nH]c(Br)c(c56)C[C@H]4N(C)C3)(C(C)C)C(=O)N12` [BROMOCRIPTINE], the IC50 result in assay [1] was “Not Active”; on D(3) dopamine receptor (read-out: IC50) it was 0.596 nM; in assay [2] (cho-k1), “Not Active”; on Caspase-1, “Not Active”; in assay [3] (read-out: IC50) it was 5.64 nM. The Ki entry in assay [1] was “Not Active”; on D(3) dopamine receptor it was 0.202 nM; in assay [3], 3.22 nM.

In the case of `CS(=O)(=O)OCCCCOS(C)(=O)=O` [BUSULFAN], the IC50 result (in assay [1]; on D(3) dopamine receptor (cho); in assay [2] (cho-k1); on Caspase-1; in assay [3] (cho-k1)) was “Not Active” throughout. Moreover, in assay [1], the Ki entry was “Not Active”.

On to `O=C(/C=C/c1ccc(O)c(O)c1)OCCc1ccccc1` [CAFFEIC ACID PHENETHYL ESTER], for which the IC50 entry (in assay [1]; on D(3) dopamine receptor (cho); in assay [2] (cho-k1); on Caspase-1; in assay [3] (cho-k1)) was “Not Active” each time. Besides, in assay [1], the inhibition constant (Ki) result is on record as “Not Active”.

For `COc1cc(CNC(=O)CCCC/C=C/C(C)C)ccc1O` [CAPSAICIN], the IC50 result (in assay [1]; on D(3) dopamine receptor (cho); in assay [2] (cho-k1); on Caspase-1; in assay [3] (cho-k1)) was “Not Active” each time. Further, in assay [1], the Ki result is recorded as “Not Active”.

Consider `NC(=O)N1c2ccccc2C=Cc2ccccc21` [CARBAMAZEPINE], for which the IC50 entry (in assay [1]; at D(3) dopamine receptor (cho); in assay [2] (cho-k1); against Caspase-1; in assay [3] (cho-k1)) was “Not Active” in each case. The inhibition constant Ki result in assay [1] is given as “Not Active”.

Turning to `CN1C[C@H](C(=O)N[C@]2(C)O[C@@]3(O)[C@@H]4CCCN4C(=O)[C@H](Cc4ccccc4)N3C2=O)C[C@@H]2c3cccc4[nH]cc(c34)C[C@H]21` [DIHYDROERGOTAMINE], the IC50 on D(3) dopamine receptor (read-out: IC50) was 5.34 nM; in assay [2] (cho-k1) it was “Not Active”; on Caspase-1 it was “Not Active”; in assay [3] (read-out: IC50), 0.659 nM. Besides, the Ki on D(3) dopamine receptor was 1.81 nM; in assay [3], 0.377 nM.

Regarding `Cc1cnc(C(=O)NCCc2ccc(S(=O)(=O)NC(=O)NC3CCCCC3)cc2)cn1` [GLIPIZIDE], the IC50 result (in assay [1]; on D(3) dopamine receptor (cho); in assay [2] (cho-k1); in assay [3] (cho-k1)) was “Not Active” throughout. The Ki entry in assay [1] was “Not Active”.
